Measured values from patent US10766893B2 (priority 2017, dated 2020).

Tests used:
Assay in all cases: biochemical
Format in all cases: biochemical
Conditions in all cases: 15 nM tritium labelled cAMP, 1 hr at room temperature
PDE1C = PDE1C (Homo sapiens (Human), UniProt Q14123)
Description: (§1) Table 1 lists the IC50 value for inhibition of PDE1 by the compounds of the invention. […] PDE1 assays are described in the Experimental Section.

PDE1B = PDE1B (Homo sapiens (Human), UniProt Q01064)
Description: as §1

PDE1A = PDE1A (Homo sapiens (Human), UniProt P54750)
Description: as §1

PDE1C, sequence (Q14123 whole entry): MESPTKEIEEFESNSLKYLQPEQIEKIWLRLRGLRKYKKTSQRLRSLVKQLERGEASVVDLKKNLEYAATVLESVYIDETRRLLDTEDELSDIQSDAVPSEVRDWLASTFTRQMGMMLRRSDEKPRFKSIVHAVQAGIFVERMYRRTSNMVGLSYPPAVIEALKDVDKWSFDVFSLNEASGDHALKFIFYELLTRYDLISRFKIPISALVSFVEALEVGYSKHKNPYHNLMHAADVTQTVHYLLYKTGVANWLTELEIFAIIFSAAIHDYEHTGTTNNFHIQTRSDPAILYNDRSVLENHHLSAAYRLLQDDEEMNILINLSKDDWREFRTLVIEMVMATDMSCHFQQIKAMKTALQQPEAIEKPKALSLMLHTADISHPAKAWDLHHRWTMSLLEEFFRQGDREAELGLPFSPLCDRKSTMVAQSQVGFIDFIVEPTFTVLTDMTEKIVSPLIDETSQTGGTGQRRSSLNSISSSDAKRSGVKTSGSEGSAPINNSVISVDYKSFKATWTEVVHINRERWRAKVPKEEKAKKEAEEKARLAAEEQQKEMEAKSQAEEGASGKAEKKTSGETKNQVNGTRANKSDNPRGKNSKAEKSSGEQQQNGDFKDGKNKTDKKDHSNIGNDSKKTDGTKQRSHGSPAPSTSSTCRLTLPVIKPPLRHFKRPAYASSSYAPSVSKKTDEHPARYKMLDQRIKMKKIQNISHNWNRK
PDE1A, sequence (P54750 whole entry): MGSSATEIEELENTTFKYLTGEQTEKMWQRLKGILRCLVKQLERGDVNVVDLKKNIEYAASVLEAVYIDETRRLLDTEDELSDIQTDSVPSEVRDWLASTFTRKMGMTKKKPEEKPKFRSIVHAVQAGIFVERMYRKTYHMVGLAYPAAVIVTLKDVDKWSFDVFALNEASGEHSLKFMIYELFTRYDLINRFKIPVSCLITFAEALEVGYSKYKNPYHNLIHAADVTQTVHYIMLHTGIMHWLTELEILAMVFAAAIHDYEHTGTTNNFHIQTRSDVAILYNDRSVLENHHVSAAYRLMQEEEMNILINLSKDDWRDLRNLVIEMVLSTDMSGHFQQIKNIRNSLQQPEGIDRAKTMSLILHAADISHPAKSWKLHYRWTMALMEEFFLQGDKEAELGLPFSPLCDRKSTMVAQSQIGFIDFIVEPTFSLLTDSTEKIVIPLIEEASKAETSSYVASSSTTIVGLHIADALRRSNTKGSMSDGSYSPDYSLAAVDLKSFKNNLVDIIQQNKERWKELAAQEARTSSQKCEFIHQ
PDE1B, sequence (Q01064 whole entry): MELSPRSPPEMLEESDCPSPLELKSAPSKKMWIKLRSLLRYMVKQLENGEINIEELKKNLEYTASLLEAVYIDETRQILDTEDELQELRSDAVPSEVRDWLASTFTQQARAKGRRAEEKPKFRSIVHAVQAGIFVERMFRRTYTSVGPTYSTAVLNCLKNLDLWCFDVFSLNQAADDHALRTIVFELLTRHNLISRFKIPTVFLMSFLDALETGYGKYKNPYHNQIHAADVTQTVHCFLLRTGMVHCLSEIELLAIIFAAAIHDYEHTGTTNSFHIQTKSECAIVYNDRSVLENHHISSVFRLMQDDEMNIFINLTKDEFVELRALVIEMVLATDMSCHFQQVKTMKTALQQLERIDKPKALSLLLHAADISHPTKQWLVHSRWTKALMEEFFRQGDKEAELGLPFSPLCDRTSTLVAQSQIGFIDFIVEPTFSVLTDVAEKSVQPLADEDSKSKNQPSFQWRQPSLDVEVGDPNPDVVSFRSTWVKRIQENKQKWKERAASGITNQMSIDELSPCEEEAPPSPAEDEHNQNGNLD

Row | Structure (SMILES) | IC50 (PDE1C) [nM] | IC50 (PDE1B) [nM] | IC50 (PDE1A) [nM]
1 | COc1cnccc1-c1cc(NCc2cnn(C)c2)c2c(n1)c(C)nn2C(C)C [Example 29b, 1-isopropyl-5-(3-methoxy-4-pyridyl)-3-methyl-N-[(1-methylpyrazol-4-yl)methyl]pyrazolo[4,3-b]pyridin-7-amine] | 44 | 4.9 | 32
2 | CCOc1ncccc1-c1cc(NCc2ccc3oc(C)nc3c2)c2c(n1)c(C)nn2C(C)C [Example 12a, 5-(2-ethoxy-3-pyridyl)-1-isopropyl-3-methyl-N-[(2-methyl-1,3-benzoxazol-5-yl)methyl]pyrazolo[4,3-b]pyridin-7-amine] | 31 | 0.81 | 8.7
3 | CCOc1cnccc1-c1cc(NCc2ccccn2)c2c(n1)c(C)nn2C(C)C [Example 15b, 5-(3-ethoxy-4-pyridyl)-1-isopropyl-3-methyl-N-(2-pyridylmethyl)pyrazolo[4,3-b]pyridin-7-amine] | 55 | 1.4 | 17
4 | CCOc1cnccc1-c1cc(NCc2cc[nH]n2)c2c(n1)c(C)nn2C(C)C [Example 13b, 5-(3-ethoxy-4-pyridyl)-1-isopropyl-3-methyl-N-(1H-pyrazol-3-ylmethyl)pyrazolo[4,3-b]pyridin-7-amine] | 56 | 2.5 | 24
5 | CCCOc1cnccc1-c1cc(NCc2cnn(C)c2)c2c(n1)c(C)nn2C(C)C [Example 31b, 1-isopropyl-3-methyl-N-[(1-methylpyrazol-4-yl)methyl]-5-(3-propoxy-4-pyridyl)pyrazolo[4,3-b]pyridin-7-amine] | 18 | 0.38 | 4.6
6 | CCOc1nnccc1-c1cc(NCc2cnn(C)c2)c2c(n1)c(C)nn2C(C)CC (single isomer, unassigned) [Example 6b, 5-(3-ethoxypyridazin-4-yl)-3-methyl-N-[(1-methylpyrazol-4-yl)methyl]-1-[1-methylpropyl]pyrazolo[4,3-b]pyridin-7-amine] | 11 | 0.36 | 1.9
7 | CCOc1ncccc1-c1cc(NCc2cccc3nc(C)nn23)c2c(n1)c(C)nn2C(C)C [Example 7a, 5-(2-ethoxy-3-pyridyl)-1-isopropyl-3-methyl-N-[(2-methyl-[1,2,4]triazolo[1,5-a]pyridin-5-yl)methyl]pyrazolo[4,3-b]pyridin-7-amine] | 35 | 0.93 | 11
8 | CCOc1nnccc1-c1cc(NCc2cnn(C)c2)c2c(n1)c(C)nn2C(C)CC (single isomer, unassigned) [Example 5b, 5-(3-ethoxypyridazin-4-yl)-3-methyl-N-[(1-methylpyrazol-4-yl)methyl]-1-[1-methylpropyl]pyrazolo[4,3-b]pyridin-7-amine] | 102 | 6.1 | 25
9 | Cc1nc2cccc(-c3cc(NCc4cnn(C)c4)c4c(n3)c(C)nn4C(C)C)c2o1 [Example 36b, 1-isopropyl-3-methyl-5-(2-methyl-1,3-benzoxazol-7-yl)-N-[(1-methylpyrazol-4-yl)methyl]pyrazolo[4,3-b]pyridin-7-amine] | 28 | 2.4 | 14
10 | CCOc1nnccc1-c1cc(NCc2cccc3ocnc23)c2c(n1)c(C)nn2C(C)C [Example 13a, N-(1,3-benzoxazol-4-ylmethyl)-5-(3-ethoxypyridazin-4-yl)-1-isopropyl-3-methyl-pyrazolo[4,3-b]pyridin-7-amine] | 93 | 1.7 | 39
11 | CCOc1ncccc1-c1cc(NCc2cccc3ncoc23)c2c(n1)c(C)nn2C(C)C [Example 9a, N-(1,3-benzoxazol-7-ylmethyl)-5-(2-ethoxy-3-pyridyl)-1-isopropyl-3-methyl-pyrazolo[4,3-b]pyridin-7-amine] | 82 | 5.3 | 45
12 | CCOc1cnccc1-c1cc(NCc2cccc(OC)n2)c2c(n1)c(C)nn2C(C)C [Example 25b, 5-(3-ethoxy-4-pyridyl)-1-isopropyl-N-[(6-methoxy-2-pyridyl)methyl]-3-methyl-pyrazolo[4,3-b]pyridin-7-amine] | 53 | 1.6 | 17
13 | CCOc1nnccc1-c1cc(NCc2cccnc2F)c2c(n1)c(C)nn2C(C)C [Example 16b, 5-(3-ethoxypyridazin-4-yl)-N-[(2-fluoro-3-pyridyl)methyl]-1-isopropyl-3-methyl-pyrazolo[4,3-b]pyridin-7-amine] | 50 | 3.4 | 18
14 | CCOc1ncccc1-c1cc(NCc2cccc3oc(C)nc23)c2c(n1)c(C)nn2C(C)C [Example 11a, 5-(2-ethoxy-3-pyridyl)-1-isopropyl-3-methyl-N-[(2-methyl-1,3-benzoxazol-4-yl)methyl]pyrazolo[4,3-b]pyridin-7-amine] | 26 | 4 | 18
15 | CCOc1ncccc1-c1cc(NCc2nccc3nncn23)c2c(n1)c(C)nn2C(C)C [Example 15a, N-([1,2,4]triazolo[4,3-c]pyrimidin-5-ylmethyl)-5-(2-ethoxypyridin-3-yl)-1-isopropyl-3-methyl-1H-pyrazolo[4,3-b]pyridin-7-amine] | 43 | 4.8 | 30
16 | CCOc1ncccc1-c1cc(NCc2nccc3nccn23)c2c(n1)c(C)nn2C(C)C [Example 16a, 5-(2-ethoxypyridin-3-yl)-N-(imidazo[1,2-c]pyrimidin-5-ylmethyl)-1-isopropyl-3-methyl-1H-pyrazolo[4,3-b]pyridin-7-amine] | 44 | 4 | 35
17 | CCOc1cnccc1-c1cc(NCc2ncn(C)n2)c2c(n1)c(C)nn2C(C)C [Example 19b, 5-(3-ethoxy-4-pyridyl)-1-isopropyl-3-methyl-N-[(1-methyl-1,2,4-triazol-3-yl)methyl]pyrazolo[4,3-b]pyridin-7-amine] | 22 | 0.91 | 11
18 | Cc1nn(C(C)C)c2c(NCc3cnn(C)c3)cc(-c3cccc4cn[nH]c34)nc12 [Example 39b, 5-(1H-indazol-7-yl)-1-isopropyl-3-methyl-N-[(1-methylpyrazol-4-yl)methyl]pyrazolo[4,3-b]pyridin-7-amine] | 300 | 24 | 140
19 | CCOc1cnccc1-c1cc(NCc2nnc(C)o2)c2c(n1)c(C)nn2C(C)C [Example 34b, 5-(3-ethoxy-4-pyridyl)-1-isopropyl-3-methyl-N-[(5-methyl-1,3,4-oxadiazol-2-yl)methyl]pyrazolo[4,3-b]pyridin-7-amine] | 130 | 7 | 49
20 | CCOc1nnccc1-c1cc(NCc2cnc(C)s2)c2c(n1)c(C)nn2C(C)C [Example 20b, 5-(3-ethoxypyridazin-4-yl)-1-isopropyl-3-methyl-N-[(2-methylthiazol-5-yl)methyl]pyrazolo[4,3-b]pyridin-7-amine] | 24 | 1.1 | 5.7
21 | CCOc1nnccc1-c1cc(NCc2nnc(C)o2)c2c(n1)c(C)nn2C(C)C [Example 8b, 5-(3-ethoxypyridazin-4-yl)-1-isopropyl-3-methyl-N-[(5-methyl-1,3,4-oxadiazol-2-yl)methyl]pyrazolo[4,3-b]pyridin-7-amine] | 320 | 14 | 97
22 | CCOc1ncccc1-c1cc(NCc2cccc3ncnn23)c2c(n1)c(C)nn2C(C)C [Example 6a, 5-(2-ethoxy-3-pyridyl)-1-isopropyl-3-methyl-N-([1,2,4]triazolo[1,5-a]pyridin-5-ylmethyl)pyrazolo[4,3-b]pyridin-7-amine] | 64 | 1.4 | 18
